According to ChEMBL document CHEMBL1158580, “Novel 1,3,5-triphenyl-2-pyrazolines as anti-infective agents” (2010):
Converted amounts (≈) assume the structure as drawn.

Experiments:
Staphylococcus aureus = experiment: Antibacterial activity against Staphylococcus aureus NCIM 5021 by microdilution method; assay type: functional
[1] = test system: Mycobacterium tuberculosis; experiment: Antimycobacterial activity against Mycobacterium tuberculosis H37Rv assessed as reduction in relative light units at 50 ug/ml after 72 hrs by luciferase reporter phage assay; assay type: functional; set-up: scale not given: the % may be the effect or the level left
Aspergillus niger = experiment: Antifungal activity against Aspergillus niger NCIM 596 assessed as fungal growth inhibition at 2 mg/ml by microdilution method; assay type: functional
Fusarium proliferatum = experiment: Antifungal activity against Fusarium proliferatum NCIM 1105 assessed as fungal growth inhibition at 2 mg/ml by microdilution method; assay type: functional
Salmonella enterica = experiment: Antibacterial activity against Salmonella typhi NCIM 2501 by microdilution method; assay type: functional, Salmonella enterica subsp. enterica serovar Typhi
Candida tropicalis = experiment: Antifungal activity against Candida tropicalis NCIM 3556 assessed as fungal growth inhibition at 2 mg/ml by microdilution method; assay type: functional
[2] = test system: Mycobacterium tuberculosis; experiment: Antimycobacterial activity against Mycobacterium tuberculosis H37Rv assessed as reduction in relative light units at 100 ug/ml after 72 hrs by luciferase reporter phage assay; assay type: functional; set-up: scale not given: the % may be the effect or the level left
Aspergillus flavus = experiment: Antifungal activity against Aspergillus flavus NCIM 594 assessed as fungal growth inhibition at 2 mg/ml by microdilution method; assay type: functional
Proteus vulgaris = experiment: Antibacterial activity against Proteus vulgaris NCIM 2813 by microdilution method; assay type: functional
Klebsiella aerogenes = experiment: Antibacterial activity against Enterobacter aerogenes NCIM 5139 by microdilution method; assay type: functional
Escherichia coli = experiment: Antibacterial activity against Escherichia coli NCIM 2931 by microdilution method; assay type: functional
Bacillus subtilis = experiment: Antibacterial activity against Bacillus subtilis NCIM 2718 by microdilution method; assay type: functional

Compound	MIC (Staphylococcus aureus)	Activity [1]	inhibition at 2000 µg/mL (Aspergillus niger)	inhibition at 2000 µg/mL (Fusarium proliferatum)	MIC (Salmonella enterica)	inhibition at 2000 µg/mL (Candida tropicalis)	Activity [2]	inhibition at 2000 µg/mL (Aspergillus flavus)	MIC (Proteus vulgaris)	MIC (Klebsiella aerogenes)	MIC (Escherichia coli)	MIC (Bacillus subtilis)
CSc1ccc(C2CC(c3ccc(C)cc3)=NN2c2ccccc2)cc1 (configuration not stated)	697 µM (≈ 250 µg/mL)	0%	93%	83.8%	0.349 µM (≈ 0.125 µg/mL)	95.3%	19.26%	38.6%	349 µM (≈ 125 µg/mL)	349 µM (≈ 125 µg/mL)	174 µM (≈ 62.4 µg/mL)	349 µM (≈ 125 µg/mL)
CSc1ccc(C2CC(c3cccc4c3OCO4)=NN2c2ccccc2)cc1 (configuration not stated)	644 µM (≈ 250 µg/mL)	10.59%	71.4%	81.3%	0.322 µM (≈ 0.125 µg/mL)	17.1%	27.81%	31.2%	322 µM (≈ 125 µg/mL)	322 µM (≈ 125 µg/mL)	80 µM (≈ 31.1 µg/mL)	322 µM (≈ 125 µg/mL)
CSc1ccc(C2CC(c3cccc(Br)c3)=NN2c2ccccc2)cc1 (configuration not stated)	591 µM (≈ 250 µg/mL)	8.55%	64.6%	90.1%	0.295 µM (≈ 0.125 µg/mL)	65.1%	20.17%	91.4%	295 µM (≈ 125 µg/mL)	295 µM (≈ 125 µg/mL)	295 µM (≈ 125 µg/mL)	295 µM (≈ 125 µg/mL)
CS(=O)(=O)c1ccc(C2CC(c3ccccc3)=NN2c2ccccc2)cc1 (configuration not stated)	664 µM (≈ 250 µg/mL)	1.7%	47.2%	97.6%	0.332 µM (≈ 0.125 µg/mL)	30.6%	50.71%	65.8%	332 µM (≈ 125 µg/mL)	332 µM (≈ 125 µg/mL)	166 µM (≈ 62.5 µg/mL)	332 µM (≈ 125 µg/mL)
CCOc1ccc(C2=NN(c3ccccc3)C(c3ccc(SC)cc3)C2)cc1 (configuration not stated)	643 µM (≈ 250 µg/mL)	36.44%	85.3%	94.3%	0.322 µM (≈ 0.125 µg/mL)	95.4%	48.35%	38.2%	322 µM (≈ 125 µg/mL)	322 µM (≈ 125 µg/mL)	161 µM (≈ 62.6 µg/mL)	322 µM (≈ 125 µg/mL)
CS(=O)(=O)c1ccc(C2CC(c3ccc(Cl)cc3)=NN2c2ccccc2)cc1 (configuration not stated)	608 µM (≈ 250 µg/mL)	0.76%	97.5%	88.3%	0.304 µM (≈ 0.125 µg/mL)	95.6%	15.46%	88.4%	304 µM (≈ 125 µg/mL)	304 µM (≈ 125 µg/mL)	152 µM (≈ 62.5 µg/mL)	304 µM (≈ 125 µg/mL)
CSc1ccc(C2CC(c3ccccc3Cl)=NN2c2ccccc2)cc1 (configuration not stated)	330 µM (≈ 125 µg/mL)	0%	98.3%	93.6%	0.33 µM (≈ 0.125 µg/mL)	91%	0%	88.2%	330 µM (≈ 125 µg/mL)	165 µM (≈ 62.5 µg/mL)	165 µM (≈ 62.5 µg/mL)	330 µM (≈ 125 µg/mL)
CSc1ccc(C2CC(c3ccc(Br)cc3)=NN2c2ccccc2)cc1 (configuration not stated)	591 µM (≈ 250 µg/mL)	0%	88.5%	34.3%	0.295 µM (≈ 0.125 µg/mL)	88.1%	18.55%	28.2%	295 µM (≈ 125 µg/mL)	295 µM (≈ 125 µg/mL)	148 µM (≈ 62.7 µg/mL)	295 µM (≈ 125 µg/mL)
COc1cccc(C2=NN(c3ccccc3)C(c3ccc(SC)cc3)C2)c1 (configuration not stated)	668 µM (≈ 250 µg/mL)	7.45%	90.1%	96.1%	0.334 µM (≈ 0.125 µg/mL)	98.7%	26.85%	51.5%	334 µM (≈ 125 µg/mL)	334 µM (≈ 125 µg/mL)	167 µM (≈ 62.5 µg/mL)	334 µM (≈ 125 µg/mL)
CSc1ccc(C2CC(c3ccccc3)=NN2c2ccccc2)cc1 (configuration not stated)	726 µM (≈ 250 µg/mL)	0%	93.5%	94.1%	0.726 µM (≈ 0.25 µg/mL)	73.1%	17.65%	30.5%	726 µM (≈ 250 µg/mL)	363 µM (≈ 125 µg/mL)	45 µM (≈ 15.5 µg/mL)	363 µM (≈ 125 µg/mL)
COc1ccc(C2=NN(c3ccccc3)C(c3ccc(SC)cc3)C2)cc1OC (configuration not stated)	618 µM (≈ 250 µg/mL)	32.66%	9.65%	93.2%	0.309 µM (≈ 0.125 µg/mL)	9.12%	30.3%	63.8%	309 µM (≈ 125 µg/mL)	155 µM (≈ 62.7 µg/mL)	155 µM (≈ 62.7 µg/mL)	309 µM (≈ 125 µg/mL)
CSc1ccc(C2CC(c3ccc(Cl)cc3)=NN2c2ccccc2)cc1 (configuration not stated)	660 µM (≈ 250 µg/mL)	0%	93%	72.9%	0.33 µM (≈ 0.125 µg/mL)	94.4%	17.43%	13.1%	660 µM (≈ 250 µg/mL)	330 µM (≈ 125 µg/mL)	82 µM (≈ 31.1 µg/mL)	330 µM (≈ 125 µg/mL)
CSc1ccc(C2CC(c3cccc([N+](=O)[O-])c3)=NN2c2ccccc2)cc1 (configuration not stated)	642 µM (≈ 250 µg/mL)	0%	65.2%	56.9%	0.321 µM (≈ 0.125 µg/mL)	45.9%	5.7%	19%	321 µM (≈ 125 µg/mL)	321 µM (≈ 125 µg/mL)	160 µM (≈ 62.3 µg/mL)	321 µM (≈ 125 µg/mL)
CSc1ccc(C2CC(c3ccc(F)cc3)=NN2c2ccccc2)cc1 (configuration not stated)	690 µM (≈ 250 µg/mL)	0%	97.3%	98.7%	0.69 µM (≈ 0.25 µg/mL)	97.4%	4.75%	94.8%	345 µM (≈ 125 µg/mL)	345 µM (≈ 125 µg/mL)	22 µM (≈ 7.97 µg/mL)	172 µM (≈ 62.3 µg/mL)
CSc1ccc(C2CC(c3cccc(N)c3)=NN2c2ccccc2)cc1 (configuration not stated)	694 µM (≈ 249 µg/mL)	0%	84.4%	93.6%	0.347 µM (≈ 0.125 µg/mL)	86.1%	13.79%	25%	347 µM (≈ 125 µg/mL)	347 µM (≈ 125 µg/mL)	173 µM (≈ 62.2 µg/mL)	347 µM (≈ 125 µg/mL)
COc1ccc(C2=NN(c3ccccc3)C(c3ccc(SC)cc3)C2)cc1 (configuration not stated)	668 µM (≈ 250 µg/mL)	0%	81.1%	65.9%	0.334 µM (≈ 0.125 µg/mL)	92.9%	24.87%	48.4%	334 µM (≈ 125 µg/mL)	334 µM (≈ 125 µg/mL)	83 µM (≈ 31.1 µg/mL)	334 µM (≈ 125 µg/mL)
